This note sets out measurements from patent publication US10067143B2, “Ubiquitination assay” (ITI Scotland Limited, priority 2010, dated 2018).

The subject of this assay is T1, SCF^Skp2/Cks1.
T1 construct: 6His-Skp2-(isoform 1, hu,FL),; GST-Skp1-(hu,FL), 6His-Cul1-; (hu,FL), UT-Rbx1-(hu,FL); 6His-Cks1-(hu,FL); 6His (N); GST (N); made in house
Kind of assay: 'Live' SCF^Skp2/Cks1 (E3) p27 ubiquitination assay, ECL. Type of assay: biochemical, human. The following applies: for inhibition in E3 assay, panel of 41 inhibitors: R140 kinase inhibitor panel + PYR-41; for inhibition in E3 assay, panel of 41 inhibitors / shows up as inhibitor in R140 kinase inhibitor panel: final E3 assay conditions; for shows up as inhibitor in R140 kinase inhibitor panel / IC50, E3 (SCF^Skp2/Cks1) assay ECL: 60 minute incubation; for IC50, E3 (SCF^Skp2/Cks1) assay ECL: 25 nM c-Myc p27, 5 nM E1, 1 μM E2, 25 nM E3 tetramer, 25 nM Cks1, 2 μM Ub, 100 μM ATP. As for the experimental part:
FIG. 30 (a): ‘Live’ SCF^Skp2/Cks1 Assay—ECL Inhibitor study—PYR-41 (E1 inhibitor).
FIG. 32: ‘Live’ SCF^Skp2/Cks1 Assay—ECL R140 Kinase inhibit or panel. Used 60 minute incubation; 25 nM c-Myc p27; anti-c-Myc capture for p27 (Millipore 05-274, 1/500); 5 nM E1; 1 μM E2 (HA); 25 nM E3 tetramer; 25 nM Cks1; 2 μM Ub; 100 μM ATP; streptavidin sulfo tag (MSD, R32AD-1, 1 μg/ml).
FIG. 34: ‘Live’ SCF^Skp2/Cks1 Assay—ECL follow up IC50s. Used 60 minute incubation; 25 nM c-Myc p27; anti c-Myc capture for p27 (Millipore 05-274, 1/500); 5 nM E1; 1 μM E2 (HA); 25 nM E3 tetramer; 25 nM Cks1; 2 μM Ub; 100 μM ATP; streptavidin sulfo tag (MSD, R32AD-1, 1 μg/ml). Titration of PYR41 (Calbiochem 662105) from 300 μM to 10 nM (control). Titration of Rottlerin, EGCG, AG538 and K252c from 300 μM to 10 nM.
Each of the assays in the p27 ubiquitination cascade (E1, E2 and E3) were tested against the E1 inhibitor PYR-41. No pre-charging of either the E1 or E2 was carried out prior to the introduction of the compound although in the E3 assay, p27 phosphorylation by CDK2/Cyclin E was carried out in the absence of inhibitor.
In order to test the feasibility of screening the E3 assay against a range of inhibitors, the assay was tested against a panel of 41 inhibitors (40 known kinase inhibitors and PYR-41) (FIG. 31). […] Using the same assay conditions, the E3 assay was tested against these inhibitors (FIG. 33).

T1 sequence (Q13309 whole entry, canonical isoform): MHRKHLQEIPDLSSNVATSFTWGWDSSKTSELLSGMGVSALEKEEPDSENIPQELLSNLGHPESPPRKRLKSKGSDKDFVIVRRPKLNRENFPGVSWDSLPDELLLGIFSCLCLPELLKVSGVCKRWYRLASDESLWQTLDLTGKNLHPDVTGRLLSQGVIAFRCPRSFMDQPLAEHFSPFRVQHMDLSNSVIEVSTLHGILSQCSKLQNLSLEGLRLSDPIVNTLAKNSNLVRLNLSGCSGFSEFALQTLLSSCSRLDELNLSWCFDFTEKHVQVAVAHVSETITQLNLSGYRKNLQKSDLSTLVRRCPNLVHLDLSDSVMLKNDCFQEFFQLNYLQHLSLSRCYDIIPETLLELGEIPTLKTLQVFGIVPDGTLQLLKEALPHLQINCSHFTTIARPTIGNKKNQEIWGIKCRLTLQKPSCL
T1 sequence (P63208 1-160 isoform P63208-2, further chain): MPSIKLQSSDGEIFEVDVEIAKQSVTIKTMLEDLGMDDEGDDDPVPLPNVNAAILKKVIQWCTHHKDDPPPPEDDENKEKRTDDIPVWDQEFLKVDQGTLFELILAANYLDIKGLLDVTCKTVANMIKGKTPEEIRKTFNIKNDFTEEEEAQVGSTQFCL
T1 sequence (Q13616 whole entry, further chain, canonical isoform): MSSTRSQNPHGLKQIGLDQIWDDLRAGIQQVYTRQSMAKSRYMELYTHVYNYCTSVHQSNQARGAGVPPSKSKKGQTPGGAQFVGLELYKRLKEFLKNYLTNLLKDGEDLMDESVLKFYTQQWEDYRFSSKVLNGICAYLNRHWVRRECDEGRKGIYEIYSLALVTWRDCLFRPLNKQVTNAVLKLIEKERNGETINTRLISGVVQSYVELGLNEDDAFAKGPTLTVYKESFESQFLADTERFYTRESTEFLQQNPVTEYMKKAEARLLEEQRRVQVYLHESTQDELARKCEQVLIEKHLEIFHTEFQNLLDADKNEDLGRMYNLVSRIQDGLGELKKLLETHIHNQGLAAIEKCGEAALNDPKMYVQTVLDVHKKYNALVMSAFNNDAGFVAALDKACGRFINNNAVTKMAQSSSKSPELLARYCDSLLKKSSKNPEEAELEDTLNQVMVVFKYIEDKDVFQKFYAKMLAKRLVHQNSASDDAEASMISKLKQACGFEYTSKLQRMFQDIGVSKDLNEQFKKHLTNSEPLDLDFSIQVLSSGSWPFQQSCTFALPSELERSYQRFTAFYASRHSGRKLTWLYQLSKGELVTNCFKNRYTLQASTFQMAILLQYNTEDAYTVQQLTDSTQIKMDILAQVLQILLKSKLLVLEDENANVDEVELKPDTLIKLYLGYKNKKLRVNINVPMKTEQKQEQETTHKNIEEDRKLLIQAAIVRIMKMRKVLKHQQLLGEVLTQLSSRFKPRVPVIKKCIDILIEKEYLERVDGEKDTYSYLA
T1 sequence (P62877 whole entry, further chain, canonical isoform): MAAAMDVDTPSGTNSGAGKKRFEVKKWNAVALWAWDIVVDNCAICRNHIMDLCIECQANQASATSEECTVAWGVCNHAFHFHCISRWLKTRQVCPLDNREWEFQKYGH
T1 sequence (P61024 whole entry, further chain, canonical isoform): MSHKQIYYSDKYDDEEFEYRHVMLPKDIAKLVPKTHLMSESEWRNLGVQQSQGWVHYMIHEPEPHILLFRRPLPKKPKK

For `CCOC(=O)c1ccc(N2NC(=O)/C(=C/c3ccc([N+](=O)[O-])o3)C2=O)cc1` [PYR-41], the “inhibition in E3 assay, panel of 41 inhibitors” value (from here on “inhibition in E3 assay, panel”) was greater than 80%.

Take `N#C/C(=C\c1ccc(O)c(O)c1)C(=O)c1ccc(O)c(O)c1` [AG538]: the “shows up as inhibitor in R140 kinase inhibitor panel” value (from here on “shows up as inhibitor”) is reported as “show up as inhibitors”.

With `O=C(O[C@@H]1Cc2c(O)cc(O)cc2O[C@@H]1c1cc(O)c(O)c(O)c1)c1cc(O)c(O)c(O)c1` [EGCG], the “IC50, E3 (SCF^Skp2/Cks1) assay ECL” value was “in the μM range”; the “shows up as inhibitor” value is on record as “show up as inhibitors”; the “inhibition in E3 assay, panel” value is listed as “moderate amounts of inhibition”.

With `CC(=O)c1c(O)c(C)c(O)c(Cc2c(O)c3c(c(C(=O)/C=C/c4ccccc4)c2O)OC(C)(C)C=C3)c1O` [Rottlerin], the “IC50, E3 (SCF^Skp2/Cks1) assay ECL” value is on record as “in the μM range”; the “shows up as inhibitor” value was “show up as inhibitors”; the “inhibition in E3 assay, panel” value is recorded as “moderate amounts of inhibition”.

For `O=C1NCc2c1c1c3ccccc3[nH]c1c1[nH]c3ccccc3c21` [K252c], the “IC50, E3 (SCF^Skp2/Cks1) assay ECL” value was “false positive”; the “shows up as inhibitor” value was “show up as inhibitors”; the “inhibition in E3 assay, panel” value is “moderate amounts of inhibition”.
